Experimental data published in PubChem BioAssay AID1963986 (Molecular Pharmacology Branch, DTP, NCI, 2024).

Tested on: 171881-019-R-J1-PDC tumor spheroid viability
Test: Anticancer human tumor 171881-019-R-J1-PDC patient-derived invasive breast carcinoma cell line growth inhibition [PI3K]
Details: spheroids with HUVEC and MSC; for IC50: curve of first compound; for viability, T/C: stronger effect = lower value
Outline: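 Stroma-containing spheroids: tumor line, pooled-donor HUVEC, hMSC. Treatments: targeted agents with PI3K inhibitors. Dosing: clinically relevant, half-log spacing, 10 microM ceiling without known Cmax. Read-out: cell viability.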

[1] = second compound 0.00316 µM, first compound 0.0316 µM
[2] = second compound 0.00316 µM, first compound 0.1 µM
[3] = second compound 0.00316 µM, first compound 0.316 µM
[4] = second compound 0.00316 µM, first compound 1 µM
[5] = second compound 0.00316 µM, first compound 3.16 µM
[6] = second compound 0.00316 µM, first compound 10 µM
[7] = second compound 0.01 µM, first compound 0.0316 µM
[8] = second compound 0.01 µM, first compound 0.1 µM
[9] = second compound 0.01 µM, first compound 0.316 µM
[10] = second compound 0.01 µM, first compound 1 µM
[11] = second compound 0.01 µM, first compound 3.16 µM
[12] = second compound 0.01 µM, first compound 10 µM
[13] = second compound 0.0316 µM, first compound 0.0316 µM
[14] = second compound 0.0316 µM, first compound 0.1 µM
[15] = second compound 0.0316 µM, first compound 0.316 µM
[16] = second compound 0.0316 µM, first compound 1 µM
[17] = second compound 0.0316 µM, first compound 3.16 µM
[18] = second compound 0.0316 µM, first compound 10 µM
[19] = second compound 0.1 µM, first compound 0.0316 µM
[20] = second compound 0.1 µM, first compound 0.1 µM
[21] = second compound 0.1 µM, first compound 0.316 µM
[22] = second compound 0.1 µM, first compound 1 µM
[23] = second compound 0.1 µM, first compound 3.16 µM
[24] = second compound 0.1 µM, first compound 10 µM
[25] = second compound 0.316 µM, first compound 0.0316 µM
[26] = second compound 0.316 µM, first compound 0.1 µM
[27] = second compound 0.316 µM, first compound 0.316 µM
[28] = second compound 0.316 µM, first compound 1 µM
[29] = second compound 0.316 µM, first compound 3.16 µM
[30] = second compound 0.316 µM, first compound 10 µM
[31] = second compound 1 µM, first compound 0.0316 µM
[32] = second compound 1 µM, first compound 0.1 µM
[33] = second compound 1 µM, first compound 0.316 µM
[34] = second compound 1 µM, first compound 1 µM
[35] = second compound 1 µM, first compound 3.16 µM
[36] = second compound 1 µM, first compound 10 µM
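Note: spheroids exposed to compound for 7 days before viability read.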
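Throughout, for viability, T/C: 100% = DMSO vehicle-treated spheroids.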

C#Cc1c(F)ccc2cc(O)cc(-c3ncc4c(N5CC6CCC(C5)N6)nc(OCC56CCCN5CC(F)C6)nc4c3F)c12 (stereo not given) + COc1c(OCCCN2CCOCC2)ccc2c3n(c(=NC(=O)c4cnc(N)nc4)nc12)CCN3
IC50 (second compound 0.00316 µM): 61.3 nM | IC50 (second compound 0.01 µM): < 31.6 nM | IC50 (second compound 0.0316 µM): < 31.6 nM | IC50 (second compound 0.1 µM): < 31.6 nM | IC50 (second compound 0.316 µM): < 31.6 nM | IC50 (second compound 1 µM): < 31.6 nM | viability, T/C [1]: 53.6% | viability, T/C [2]: 48.2% | viability, T/C [3]: 30% | viability, T/C [4]: 20.7% | viability, T/C [5]: 15.8% | viability, T/C [6]: 12.8% | viability, T/C [7]: 38.2% | viability, T/C [8]: 31.8% | viability, T/C [9]: 20.4% | viability, T/C [10]: 15.1% | viability, T/C [11]: 10.3% | viability, T/C [12]: 9.69% | viability, T/C [13]: 18.9% | viability, T/C [14]: 14.8% | viability, T/C [15]: 10% | viability, T/C [16]: 6.62% | viability, T/C [17]: 5.52% | viability, T/C [18]: 4.3% | viability, T/C [19]: 6.23% | viability, T/C [20]: 4.84% | viability, T/C [21]: 3.8% | viability, T/C [22]: 3.03% | viability, T/C [23]: 2.87% | viability, T/C [24]: 1.74% | viability, T/C [25]: 1.68% | viability, T/C [26]: 1.75% | viability, T/C [27]: 1.34% | viability, T/C [28]: 1.08% | viability, T/C [29]: 0.99% | viability, T/C [30]: 0.17% | viability, T/C [31]: 0.8% | viability, T/C [32]: 0.83% | viability, T/C [33]: 0.78% | viability, T/C [34]: 0.83% | viability, T/C [35]: 0.68% | viability, T/C [36]: 0.29%

C=CC(=O)N1CCN(c2nc(=O)n(-c3c(C)ccnc3C(C)C)c3nc(-c4c(O)cccc4F)c(F)cc23)C(C)C1 (stereo not given) + COc1c(OCCCN2CCOCC2)ccc2c3n(c(=NC(=O)c4cnc(N)nc4)nc12)CCN3
IC50 (second compound 0.00316 µM): 5310 nM | IC50 (second compound 0.01 µM): < 31.6 nM | IC50 (second compound 0.0316 µM): < 31.6 nM | IC50 (second compound 0.1 µM): < 31.6 nM | IC50 (second compound 0.316 µM): < 31.6 nM | IC50 (second compound 1 µM): < 31.6 nM | viability, T/C [1]: 63.5% | viability, T/C [2]: 70% | viability, T/C [3]: 50% | viability, T/C [4]: 66.9% | viability, T/C [5]: 60.3% | viability, T/C [6]: 36.9% | viability, T/C [7]: 45.4% | viability, T/C [8]: 49.9% | viability, T/C [9]: 49% | viability, T/C [10]: 51.3% | viability, T/C [11]: 43.8% | viability, T/C [12]: 28.4% | viability, T/C [13]: 24.2% | viability, T/C [14]: 25.5% | viability, T/C [15]: 24.3% | viability, T/C [16]: 26.2% | viability, T/C [17]: 25.6% | viability, T/C [18]: 13.3% | viability, T/C [19]: 7.99% | viability, T/C [20]: 8.18% | viability, T/C [21]: 9.55% | viability, T/C [22]: 9.16% | viability, T/C [23]: 8.78% | viability, T/C [24]: 4.72% | viability, T/C [25]: 1.86% | viability, T/C [26]: 1.72% | viability, T/C [27]: 2.68% | viability, T/C [28]: 2.25% | viability, T/C [29]: 2.28% | viability, T/C [30]: 2.01% | viability, T/C [31]: 0.96% | viability, T/C [32]: 0.93% | viability, T/C [33]: 1.05% | viability, T/C [34]: 1.41% | viability, T/C [35]: 1.76% | viability, T/C [36]: 3.63%

CC(Cn1ccc(-c2ccc(C#N)c(Cl)c2)n1)NC(=O)c1cc(C(C)O)[nH]n1 (stereo not given) + COc1c(OCCCN2CCOCC2)ccc2c3n(c(=NC(=O)c4cnc(N)nc4)nc12)CCN3
IC50 (second compound 0.00316 µM): > 10000 nM | IC50 (second compound 0.01 µM): < 31.6 nM | IC50 (second compound 0.0316 µM): < 31.6 nM | IC50 (second compound 0.1 µM): < 31.6 nM | IC50 (second compound 0.316 µM): < 31.6 nM | IC50 (second compound 1 µM): < 31.6 nM | viability, T/C [1]: 64.2% | viability, T/C [2]: 66.1% | viability, T/C [3]: 55% | viability, T/C [4]: 62% | viability, T/C [5]: 64.5% | viability, T/C [6]: 48.1% | viability, T/C [7]: 48.6% | viability, T/C [8]: 52.4% | viability, T/C [9]: 45.4% | viability, T/C [10]: 51.1% | viability, T/C [11]: 45% | viability, T/C [12]: 32.2% | viability, T/C [13]: 22.5% | viability, T/C [14]: 25.8% | viability, T/C [15]: 21.9% | viability, T/C [16]: 22.7% | viability, T/C [17]: 24.5% | viability, T/C [18]: 17.4% | viability, T/C [19]: 6.84% | viability, T/C [20]: 7.08% | viability, T/C [21]: 6.29% | viability, T/C [22]: 6.57% | viability, T/C [23]: 7.04% | viability, T/C [24]: 5.04% | viability, T/C [25]: 1.65% | viability, T/C [26]: 1.42% | viability, T/C [27]: 1.54% | viability, T/C [28]: 1.44% | viability, T/C [29]: 1.55% | viability, T/C [30]: 2.61% | viability, T/C [31]: 1.17% | viability, T/C [32]: 0.9% | viability, T/C [33]: 2.01% | viability, T/C [34]: 1.22% | viability, T/C [35]: 2.13% | viability, T/C [36]: 3.1%

CC1(C)CCC(Nc2ncc(C(F)(F)F)c(-c3c[nH]c4c(P(C)(C)=O)c(C#N)ccc34)n2)CN1 (stereo not given) + COc1c(OCCCN2CCOCC2)ccc2c3n(c(=NC(=O)c4cnc(N)nc4)nc12)CCN3
IC50 (second compound 0.00316 µM): 4000 nM | IC50 (second compound 0.01 µM): < 31.6 nM | IC50 (second compound 0.0316 µM): < 31.6 nM | IC50 (second compound 0.1 µM): < 31.6 nM | IC50 (second compound 0.316 µM): < 31.6 nM | IC50 (second compound 1 µM): < 31.6 nM | viability, T/C [1]: 51.9% | viability, T/C [2]: 57.2% | viability, T/C [3]: 60.6% | viability, T/C [4]: 69% | viability, T/C [5]: 63.2% | viability, T/C [6]: 9.56% | viability, T/C [7]: 44.6% | viability, T/C [8]: 49.3% | viability, T/C [9]: 50.9% | viability, T/C [10]: 55.3% | viability, T/C [11]: 45.5% | viability, T/C [12]: 3.97% | viability, T/C [13]: 23.4% | viability, T/C [14]: 27.9% | viability, T/C [15]: 27.1% | viability, T/C [16]: 33.2% | viability, T/C [17]: 23.2% | viability, T/C [18]: 1.05% | viability, T/C [19]: 11.1% | viability, T/C [20]: 11.1% | viability, T/C [21]: 11.3% | viability, T/C [22]: 12.7% | viability, T/C [23]: 7.29% | viability, T/C [24]: 0.37% | viability, T/C [25]: 2.05% | viability, T/C [26]: 1.65% | viability, T/C [27]: 1.41% | viability, T/C [28]: 1.53% | viability, T/C [29]: 0.65% | viability, T/C [30]: 0.12% | viability, T/C [31]: 1.55% | viability, T/C [32]: 0.66% | viability, T/C [33]: 0.6% | viability, T/C [34]: 0.51% | viability, T/C [35]: 1.51% | viability, T/C [36]: 0.25%

Cn1nccc1Nc1nccc(-c2ccn(C(CO)c3ccc(Cl)c(F)c3)c(=O)c2)n1 (stereo not given) + COc1c(OCCCN2CCOCC2)ccc2c3n(c(=NC(=O)c4cnc(N)nc4)nc12)CCN3
IC50 (second compound 0.00316 µM): 38.2 nM | IC50 (second compound 0.01 µM): < 31.6 nM | IC50 (second compound 0.0316 µM): < 31.6 nM | IC50 (second compound 0.1 µM): < 31.6 nM | IC50 (second compound 0.316 µM): < 31.6 nM | IC50 (second compound 1 µM): < 31.6 nM | viability, T/C [1]: 51.4% | viability, T/C [2]: 42.5% | viability, T/C [3]: 28.6% | viability, T/C [4]: 18.1% | viability, T/C [5]: 14.3% | viability, T/C [6]: 11% | viability, T/C [7]: 44.5% | viability, T/C [8]: 32.1% | viability, T/C [9]: 21.4% | viability, T/C [10]: 12.2% | viability, T/C [11]: 9.48% | viability, T/C [12]: 7.46% | viability, T/C [13]: 19.3% | viability, T/C [14]: 14.8% | viability, T/C [15]: 8.54% | viability, T/C [16]: 5.82% | viability, T/C [17]: 4.42% | viability, T/C [18]: 2.75% | viability, T/C [19]: 6.44% | viability, T/C [20]: 4.39% | viability, T/C [21]: 3.29% | viability, T/C [22]: 2.41% | viability, T/C [23]: 2.36% | viability, T/C [24]: 0.87% | viability, T/C [25]: 1.92% | viability, T/C [26]: 1.3% | viability, T/C [27]: 1.85% | viability, T/C [28]: 1.35% | viability, T/C [29]: 0.41% | viability, T/C [30]: 0.33% | viability, T/C [31]: 0.78% | viability, T/C [32]: 0.82% | viability, T/C [33]: 0.76% | viability, T/C [34]: 0.86% | viability, T/C [35]: 1.32% | viability, T/C [36]: 0.5%
